The values below come from patent US12576051B2, “Methods and composition for treating respiratory obstructive diseases” (The Regents of the University of California, priority 2019, dated 2026).

Experiment [1] relates to respiratory secreted mucus. Put plainly: Mucolytic activity on respiratory secreted mucus of open porcine trachea sections (alcian blue). The conditions noted are these: 2 mM, HCO3-Ringer with PGE2 (1 uM) and alcian blue (0.02%), 10 minutes at 37° C.; untreated showed clusters of secreted mucus; hydrochloride. On the procedure:
FIG. 16 provides the mucolytic activity of compounds 646 and 647 on respiratory secreted mucus. Small sections of open porcine trachea (˜2 cm^2) were covered with HCO3-Ringer solution ([…]) containing PGE2 (1 uM) and alcian blue (0.02%), with or without compounds at a 2 mM final concentration, and then incubated for 10 minutes at 37° C.
FIG. 17 provides the mucolytic activity of compounds 655 and 656 on respiratory secreted mucus. Small sections of open porcine trachea (˜2 cm^2) were covered with HCO3-Ringer solution ([…]) containing PGE2 (1 uM) and alcian blue (0.02%), with or without compounds at a 2 mM final concentration, and then incubated for 10 minutes at 37° C.

The subject of experiment [2] is Muc5ac mucin from porcine airway mucus. Put plainly: Mucolytic effect on Muc5ac mucin from porcine airway mucus (western blot, densitometry). In kind it is biochemical. The settings on record: 2 mM, 30 mins at 37° C.; compound preincubated in HCO3-Ringer, HCO3-Ringer/acetic acid or acetate buffer pH 4.5. As for the experimental part:
(§1) (Upper panel) Identification of Muc5ac mucin (black arrow) by western blot, from airway mucus sample collected in HCO3-Ringer and treated with or without 2 mM of compound 646 for 30 mins at 37° C. Lane CTRL, untreated sample as control. Lane Bic, sample treated with compound preincubated in HCO3-Ringer; lane Bic/Ac, sample treated with compound preincubated with 1:1 HCO3-Ringer/Acetic acid 0.1N; lane Ac, sample treated with compound preincubated in acetate buffer 1M, pH 4.5. Lower panel, densitometric analysis of the protein bands identified with the Muc5ac mucin antibody. Densitometric signal of the sample control (CTRL) was normalized as 100% (% arbitrary units).
as §1, with “647” for “646”, “4.5, as described under Methods.” for “4.5.”, “units). Control is pH 8, Bic 7.4, Bic/AC 6.9 AND AC 6.2” for “units).”
as §1, with “655” for “646”
as §1, with “compounds 656” for “compound 646”
A general note: A western blot detects proteins with antibodies after separation by electrophoresis.

For experiment [3], the system named is secreted Muc5ac mucin. Put plainly: Mucolytic activity on secreted Muc5ac mucin of open porcine trachea sections (western blot). The settings on record: 2 mM, HCO3-Ringer with PGE2 (1 uM), 10 minutes at 37° C.; FIG. 18. On the procedure: FIG. 18 provides the mucolytic activity of compounds on secreted Muc5ac mucin. Epithelial luminal surface of open porcine trachea sections (˜2 cm^2) were covered with HCO3-Ringer solution ([…]) containing PGE2 (1 uM), and alcian blue (0.02%), with or without compounds at a 2 mM final concentration, and incubated for 10 minutes at 37° C. Equal volumes of each collected sample were separated on vertical electrophoresis, and then transfer to an immobilon-P membrane for western blot analysis. […] Densitometric signal of the untreated sample, as control, was normalized to 100% (% arbitrary units).
Epithelial luminal surface of open porcine trachea sections (˜2 cm^2) were covered with […] of HCO3-Ringer solution containing PGE2 (1 uM), in the presence or absence of compounds at a 2 mM final concentration, and incubated for 5 minutes at 37° C. Afterwards, […] of sterile 7% NaCl inhaled solution was added and incubated for another 5 mins at 37° C. Equal volumes of each collected sample were separated on vertical electrophoresis, and then transferred to an immobilon-P membrane for western blot analysis. […] Densitometric signal of the non-treated sample, as control, was normalized to 100% (% arbitrary units).

With “2-aminoethane-1-d-1-thiol hydrochloride [Compound 646]”, in experiment [1], the “appearance of secreted mucus on trachea sections” value is reported as “dispersed clusters of secreted mucus”. For the same substance, in experiment [2], the “influence of acidic and basic conditions on mucolytic activity on porcine Muc5ac mucin” value was “enhanced under acidic conditions”. The “native Muc5ac levels on epithelial luminal surfaces (immunoblot)” value in experiment [3] was “decreased native Muc5ac levels”.
